Assay results taken from patent US6399319B1, “Protein kinase assay as a method for identification of fungicides” (Syngenta Crop Protection, Inc., priority 1996, dated 2002).

Tests used:
protein kinase PK-II = assay: Protein kinase inhibition assay, PK-II fraction (protamine-sulfate, [γ-33P]ATP); type: biochemical, Neurospora crassa; conditions: 100 μM in the enzyme assay mixture; protamine-sulfate as substrate; relative to DMSO control (=0% inhibition)
Procedure: (§1) Mycelium from a stock culture of the wild-type strain 74-OR8-1, obtained from the American Type Culture Collection (ATCC 18889), is grown as inoculum in Petri dishes (d=9 cm) at 24° C. in the dark for 14 days (medium: Biomalt 10 g, Difco dry yeast extract 4 g, glucose 4 g and agar 20 g, in 1 l water). […]
(§2) Protein kinase activity is assayed in a reaction mixture containing in a final volume of […], 20 mM Tris-HCl (pH 7.4), 20 mg protamine-sulfate, 10 mM Mg(NO3)2, 10 mM ATP (0.2 mCi [g-^33P]ATP), 1 mM NaN3, 0.04 mM okadaic acid, […] of protein kinase. After 20 minutes incubation at 32° C., aliquots of […] are analyzed for substrate phosphorylation using P81 chromatography paper (20 mm×20 mm; Whatman, Maidstone, UK) according to the method described by J. J. Witt and R. Roskoski (Anal. Biochem., 66, 253-258, 1975). After washing the unbounded radioactivity with 75 mM phosphoric acid (3×15 min) and ethanol 94% (1×5 min) the radioactivity in the chromatography paper is counted in 5 ml ULTIMA GOLD LSC-cocktail (Packard Instrument, Zürich, Switzerland) using a Tri-Carb 2500 TR Packard Instrument. […]

protein kinase PK-III = assay: Protein kinase inhibition assay, PK-III fraction (protamine-sulfate, [γ-33P]ATP); type: biochemical, Neurospora crassa; conditions: 100 μM in the enzyme assay mixture; protamine-sulfate as substrate; relative to DMSO control (=0% inhibition)
Procedure: as §1, §2

## N#Cc1c[nH]cc1-c1cccc(Cl)c1Cl [fenpiclonil, 4-(2,3-dichlorophenyl)pyrrole-3-carbonitrile]
Protein kinase PK-II
  inhibition of protein kinase PK-II: 67%
Protein kinase PK-III
  inhibition of protein kinase PK-III: 90%
